Data reported in BindingDB's records for PubMed 7796807 (Synaptic Pharmaceutical, 1995).

Biological target: 5-hydroxytryptamine receptor 4 (Rattus norvegicus, UniProt Q62758)
Sequence (Q62758 whole entry): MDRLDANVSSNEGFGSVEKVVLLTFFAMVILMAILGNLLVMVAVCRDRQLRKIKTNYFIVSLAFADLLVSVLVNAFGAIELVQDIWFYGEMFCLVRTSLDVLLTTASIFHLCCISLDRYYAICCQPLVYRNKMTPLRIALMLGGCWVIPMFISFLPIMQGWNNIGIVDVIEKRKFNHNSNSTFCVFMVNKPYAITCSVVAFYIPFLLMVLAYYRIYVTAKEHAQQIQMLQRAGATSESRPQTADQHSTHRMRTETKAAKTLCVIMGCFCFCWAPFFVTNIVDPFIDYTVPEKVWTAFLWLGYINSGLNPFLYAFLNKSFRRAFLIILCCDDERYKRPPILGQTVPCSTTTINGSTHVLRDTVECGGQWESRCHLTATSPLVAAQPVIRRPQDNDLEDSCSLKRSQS

SMILES	Ki [nM]
CN1C2CCC1CC(OC(=O)c1c[nH]c3ccccc13)C2 (centres undefined)	544
Cn1cc(CCN)c2cc(O)ccc21 [5-HT,omega-N-Me]	1450
CCCN(CCC)C1CCc2cccc(O)c2C1 (centres undefined)	1000
O=C(c1ccc(F)cc1)C1CCN(CCn2c(=O)[nH]c3ccccc3c2=O)CC1 [3-(2-{4-[(4-fluorophenyl)carbonyl]piperidin-1-yl}ethyl)-1,2,3,4-tetrahydroquinazoline-2,4-dione]	1000
COc1ccc2[nH]cc(CCN)c2c1 [tryptamine, 5-Methoxy]	401
CCN(CC)C(=O)[C@@H]1C=C2c3cccc4[nH]cc(c34)C[C@H]2N(C)C1 [(4R,7R)-N,N-diethyl-6-methyl-6,11-diazatetracyclo[7.6.1.0^{2,7}.0^{12,16}]hexadeca-1(16),2,9,12,14-pentaene-4-carboxamide]	1000
COc1cc(N)c(Cl)cc1C(=O)NC1CN2CCC1CC2 (centres undefined) [ZACOPRIDE,R]	808
CNS(=O)(=O)Cc1ccc2[nH]cc(CCN(C)C)c2c1 [Sumax]	1000
COc1cc(N)c(Cl)cc1C(=O)NC1CCN2CCCC1C2 (centres undefined) [NSC_3035240]	243
